Publication PMC12446476 (Nature Communications, 2025)

Tested on: N. gonorrhoeae
Experiment: In vitro time-kill assay
Type: cell-based, Neisseria gonorrhoeae
Details: for mean time to reach bactericidal activity: ten isolates
Description: The 2024 WHO N. gonorrhoeae reference strains were used for quality control. Only whole MIC doubling dilutions are reported. Clinical breakpoints or the epidemiological cutoff (ECOFF, to indicate azithromycin resistance) from EUCAST (v14.0, https://www.eucast.org/clinical_breakpoints) were used to classify isolates as antimicrobial susceptible or resistant. […] Two times the standard inoculum defined by CLSI was used to establish consistent growth in untreated control samples for some strains. In vitro time-kill assays were performed according to CLSI guidelines[65] using Columbia Broth (BD Difco) supplemented with 1% IsoVitaleX Enrichment (BD). Viable bacterial counts were generated by plating 10-fold serially diluted samples on GC agar plates containing 1% IsoVitaleX Enrichment (BD).

Question: Which results are given for `Cc1c(CN(C)C(=O)/C=C/c2cnc3c(c2)N[C@H](C)[C@H](O)C(=O)N3)oc2ccccc12` [Debio 1453]?
Answer: mean time to reach bactericidal activity (2× MIC): 10 h; mean time to reach bactericidal activity (4× MIC): 8.5 h; mean time to reach bactericidal activity (8× MIC): 8 h; mean time to reach bactericidal activity (16× MIC): 8 h; Log10CFU/ml (time kill) (6804, 2X MIC, 0 hr): 6.11 Log10CFU/ml; Log10CFU/ml (time kill) (6804, 2X MIC, 1 hr): 6.05 Log10CFU/ml; Log10CFU/ml (time kill) (6804, 2X MIC, 3 hr): 5.70 Log10CFU/ml; Log10CFU/ml (time kill) (6804, 2X MIC, 6 hr): 5.13 Log10CFU/ml; Log10CFU/ml (time kill) (6804, 2X MIC, 10 hr): 4.59 Log10CFU/ml; Log10CFU/ml (time kill) (6804, 2X MIC, 24 hr): 1.95 Log10CFU/ml; Log10CFU/ml (time kill) (6804, 4X MIC, 0 hr): 6.04 Log10CFU/ml; Log10CFU/ml (time kill) (6804, 4X MIC, 1 hr): 6.04 Log10CFU/ml; Log10CFU/ml (time kill) (6804, 4X MIC, 3 hr): 5.43 Log10CFU/ml; Log10CFU/ml (time kill) (6804, 4X MIC, 6 hr): 4.53 Log10CFU/ml; Log10CFU/ml (time kill) (6804, 4X MIC, 10 hr): 3.72 Log10CFU/ml; Log10CFU/ml (time kill) (6804, 4X MIC, 24 hr): 1.95 Log10CFU/ml; Log10CFU/ml (time kill) (6804, 8X MIC, 0 hr): 6.21 Log10CFU/ml; Log10CFU/ml (time kill) (6804, 8X MIC, 1 hr): 6.03 Log10CFU/ml; Log10CFU/ml (time kill) (6804, 8X MIC, 3 hr): 5.13 Log10CFU/ml; Log10CFU/ml (time kill) (6804, 8X MIC, 6 hr): 4.30 Log10CFU/ml; Log10CFU/ml (time kill) (6804, 8X MIC, 10 hr): 3.41 Log10CFU/ml; Log10CFU/ml (time kill) (6804, 8X MIC, 24 hr): 1.95 Log10CFU/ml; Log10CFU/ml (time kill) (6804, 16X MIC, 0 hr): 6.00 Log10CFU/ml; Log10CFU/ml (time kill) (6804, 16X MIC, 1 hr): 6.07 Log10CFU/ml; Log10CFU/ml (time kill) (6804, 16X MIC, 3 hr): 5.20 Log10CFU/ml; Log10CFU/ml (time kill) (6804, 16X MIC, 6 hr): 4.67 Log10CFU/ml; Log10CFU/ml (time kill) (6804, 16X MIC, 10 hr): 3.70 Log10CFU/ml; Log10CFU/ml (time kill) (6804, 16X MIC, 24 hr): 1.95 Log10CFU/ml; Log10CFU/ml (time kill) (AR Bank0175, 2X MIC, 0 hr): 6.11 Log10CFU/ml; Log10CFU/ml (time kill) (AR Bank0175, 2X MIC, 1 hr): 5.92 Log10CFU/ml; Log10CFU/ml (time kill) (AR Bank0175, 2X MIC, 3 hr): 5.61 Log10CFU/ml; Log10CFU/ml (time kill) (AR Bank0175, 2X MIC, 6 hr): 4.46 Log10CFU/ml; Log10CFU/ml (time kill) (AR Bank0175, 2X MIC, 10 hr): 3.38 Log10CFU/ml; Log10CFU/ml (time kill) (AR Bank0175, 2X MIC, 24 hr): 1.95 Log10CFU/ml; Log10CFU/ml (time kill) (AR Bank0175, 4X MIC, 0 hr): 6.15 Log10CFU/ml; Log10CFU/ml (time kill) (AR Bank0175, 4X MIC, 1 hr): 5.59 Log10CFU/ml; Log10CFU/ml (time kill) (AR Bank0175, 4X MIC, 3 hr): 5.22 Log10CFU/ml; Log10CFU/ml (time kill) (AR Bank0175, 4X MIC, 6 hr): 4.45 Log10CFU/ml; Log10CFU/ml (time kill) (AR Bank0175, 4X MIC, 10 hr): 3.28 Log10CFU/ml; Log10CFU/ml (time kill) (AR Bank0175, 4X MIC, 24 hr): 1.95 Log10CFU/ml; Log10CFU/ml (time kill) (AR Bank0175, 8X MIC, 0 hr): 5.85 Log10CFU/ml; Log10CFU/ml (time kill) (AR Bank0175, 8X MIC, 1 hr): 5.40 Log10CFU/ml; Log10CFU/ml (time kill) (AR Bank0175, 8X MIC, 3 hr): 5.08 Log10CFU/ml; Log10CFU/ml (time kill) (AR Bank0175, 8X MIC, 6 hr): 3.85 Log10CFU/ml; Log10CFU/ml (time kill) (AR Bank0175, 8X MIC, 10 hr): 2.95 Log10CFU/ml; Log10CFU/ml (time kill) (AR Bank0175, 8X MIC, 24 hr): 1.95 Log10CFU/ml; Log10CFU/ml (time kill) (AR Bank0175, 16X MIC, 0 hr): 6.08 Log10CFU/ml; Log10CFU/ml (time kill) (AR Bank0175, 16X MIC, 1 hr): 5.41 Log10CFU/ml; Log10CFU/ml (time kill) (AR Bank0175, 16X MIC, 3 hr): 4.92 Log10CFU/ml; Log10CFU/ml (time kill) (AR Bank0175, 16X MIC, 6 hr): 3.81 Log10CFU/ml; Log10CFU/ml (time kill) (AR Bank0175, 16X MIC, 10 hr): 3.23 Log10CFU/ml; Log10CFU/ml (time kill) (AR Bank0175, 16X MIC, 24 hr): 1.95 Log10CFU/ml; Log10CFU/ml (time kill) (AR Bank0179, 2X MIC, 0 hr): 5.66 Log10CFU/ml; Log10CFU/ml (time kill) (AR Bank0179, 2X MIC, 1 hr): 5.63 Log10CFU/ml; Log10CFU/ml (time kill) (AR Bank0179, 2X MIC, 3 hr): 5.09 Log10CFU/ml; Log10CFU/ml (time kill) (AR Bank0179, 2X MIC, 6 hr): 4.63 Log10CFU/ml; Log10CFU/ml (time kill) (AR Bank0179, 2X MIC, 10 hr): 2.00 Log10CFU/ml; Log10CFU/ml (time kill) (AR Bank0179, 2X MIC, 24 hr): 1.95 Log10CFU/ml; Log10CFU/ml (time kill) (AR Bank0179, 4X MIC, 0 hr): 5.46 Log10CFU/ml; Log10CFU/ml (time kill) (AR Bank0179, 4X MIC, 1 hr): 5.53 Log10CFU/ml; Log10CFU/ml (time kill) (AR Bank0179, 4X MIC, 3 hr): 4.84 Log10CFU/ml; Log10CFU/ml (time kill) (AR Bank0179, 4X MIC, 6 hr): 3.98 Log10CFU/ml; Log10CFU/ml (time kill) (AR Bank0179, 4X MIC, 10 hr): 1.95 Log10CFU/ml; Log10CFU/ml (time kill) (AR Bank0179, 4X MIC, 24 hr): 1.95 Log10CFU/ml; Log10CFU/ml (time kill) (AR Bank0179, 8X MIC, 0 hr): 5.74 Log10CFU/ml; Log10CFU/ml (time kill) (AR Bank0179, 8X MIC, 1 hr): 5.30 Log10CFU/ml; Log10CFU/ml (time kill) (AR Bank0179, 8X MIC, 3 hr): 4.73 Log10CFU/ml; Log10CFU/ml (time kill) (AR Bank0179, 8X MIC, 6 hr): 3.88 Log10CFU/ml; Log10CFU/ml (time kill) (AR Bank0179, 8X MIC, 10 hr): 1.95 Log10CFU/ml; Log10CFU/ml (time kill) (AR Bank0179, 8X MIC, 24 hr): 1.95 Log10CFU/ml; Log10CFU/ml (time kill) (AR Bank0179, 16X MIC, 0 hr): 5.69 Log10CFU/ml; Log10CFU/ml (time kill) (AR Bank0179, 16X MIC, 1 hr): 5.23 Log10CFU/ml; Log10CFU/ml (time kill) (AR Bank0179, 16X MIC, 3 hr): 4.75 Log10CFU/ml; Log10CFU/ml (time kill) (AR Bank0179, 16X MIC, 6 hr): 3.67 Log10CFU/ml; Log10CFU/ml (time kill) (AR Bank0179, 16X MIC, 10 hr): 1.95 Log10CFU/ml; Log10CFU/ml (time kill) (AR Bank0179, 16X MIC, 24 hr): 1.95 Log10CFU/ml; Log10CFU/ml (time kill) (ATCC 49226, 2X MIC, 0 hr): 6.10 Log10CFU/ml; Log10CFU/ml (time kill) (ATCC 49226, 2X MIC, 1 hr): 5.92 Log10CFU/ml; Log10CFU/ml (time kill) (ATCC 49226, 2X MIC, 3 hr): 5.64 Log10CFU/ml; Log10CFU/ml (time kill) (ATCC 49226, 2X MIC, 6 hr): 4.51 Log10CFU/ml; Log10CFU/ml (time kill) (ATCC 49226, 2X MIC, 10 hr): 2.60 Log10CFU/ml; Log10CFU/ml (time kill) (ATCC 49226, 2X MIC, 24 hr): 1.95 Log10CFU/ml; Log10CFU/ml (time kill) (ATCC 49226, 4X MIC, 0 hr): 6.07 Log10CFU/ml; Log10CFU/ml (time kill) (WHO V, 2X MIC, 0 hr): 5.66 Log10CFU/ml; Log10CFU/ml (time kill) (WHO V, 2X MIC, 1 hr): 5.58 Log10CFU/ml; Log10CFU/ml (time kill) (WHO V, 2X MIC, 3 hr): 4.90 Log10CFU/ml; Log10CFU/ml (time kill) (WHO V, 2X MIC, 6 hr): 4.14 Log10CFU/ml; Log10CFU/ml (time kill) (WHO V, 2X MIC, 10 hr): 3.53 Log10CFU/ml; Log10CFU/ml (time kill) (WHO V, 2X MIC, 24 hr): 1.95 Log10CFU/ml; Log10CFU/ml (time kill) (WHO V, 4X MIC, 0 hr): 5.59 Log10CFU/ml; Log10CFU/ml (time kill) (WHO V, 4X MIC, 1 hr): 5.34 Log10CFU/ml; Log10CFU/ml (time kill) (WHO V, 4X MIC, 3 hr): 4.37 Log10CFU/ml; Log10CFU/ml (time kill) (WHO V, 4X MIC, 6 hr): 4.03 Log10CFU/ml; Log10CFU/ml (time kill) (WHO V, 4X MIC, 10 hr): 2.00 Log10CFU/ml; Log10CFU/ml (time kill) (WHO V, 4X MIC, 24 hr): 1.95 Log10CFU/ml; Log10CFU/ml (time kill) (WHO V, 8X MIC, 0 hr): 5.60 Log10CFU/ml; Log10CFU/ml (time kill) (WHO V, 8X MIC, 1 hr): 4.90 Log10CFU/ml; Log10CFU/ml (time kill) (WHO V, 8X MIC, 3 hr): 4.34 Log10CFU/ml; Log10CFU/ml (time kill) (WHO V, 8X MIC, 6 hr): 4.03 Log10CFU/ml; Log10CFU/ml (time kill) (WHO V, 8X MIC, 10 hr): 1.95 Log10CFU/ml; Log10CFU/ml (time kill) (WHO V, 8X MIC, 24 hr): 1.95 Log10CFU/ml; Log10CFU/ml (time kill) (WHO V, 16X MIC, 0 hr): 5.81 Log10CFU/ml; Log10CFU/ml (time kill) (WHO V, 16X MIC, 1 hr): 5.00 Log10CFU/ml; Log10CFU/ml (time kill) (WHO V, 16X MIC, 3 hr): 4.27 Log10CFU/ml; reduction in viable CFU counts (within 24 h, all concentrations tested, as low as 2× MIC, 10 isolates): ≥ 3 log10
